Assay results from EP0363353B1, “FUSED BENZAZEPINES” (SCHERING CORPORATION, priority 1987, dated 1989).

How the values were obtained:
dopamine D-1 receptor = biological target: T1, dopamine D-1 receptor (Rattus norvegicus, UniProt P18901); assay: Competitive inhibition assay, displacement of 3H-SCH 23390; type: binding
T1 construct: Striatal tissue was excised, pooled, and homogenized; from tissue; host or cells: rat striatum (Sprague-Dawley), washed membrane pellet
Description: (§1) A methodology for characterization of D-1 and D-2 receptor binding and an interpretation of the data are described by Billard et al., Life Sciences 35, 1885 (1984) in which the binding of the benzazepine (R)-(+)-8-chioro-2,3,4,5-tetrahydro-3-methyi-5-phenyi-1H-3-benzazepin-7-oi hemimaleate (SCH 23390) to the dopamine D-1 receptor is characterized. A selectivity for D-1 receptor binding as compared to D-2 receptor binding is believed to confer the therapeutic advantage of avoiding troublesome and potentially irreversible neurological side effects associated with D-2 receptor occupancy. […]
(§2) Polypropylene incubation tubes received 100 µl of the individual test compounds at various concentrations dissolved or suspended in 0.05 M Tris, pH 7.4 containing 4 mg/ml methylcellulose, 100 µl of a solution of^3H-SCH 23390 in Tris buffer (final reaction mixture concentration =0.3 nM) or 100 µl of a solution of ^3H-spiperone in Tris buffer (final concentration = 0.2 nM) and 800 µl of tissue suspension (ca. 3 mg/assay). […] The filters were-transferred to scintillation vials, equilibated with 10 ml of scintillant (Scintosol, Isolab, Inc.) for 16 hours at 25°C and the radioactivity determined in a liquid scintillation counter. […]

D-2 receptor = biological target: T2, D-2 receptor (Rattus norvegicus, UniProt P61169); assay: Competitive inhibition assay, displacement of 3H-spiperone; type: binding; conditions: 3H-spiperone 0.2 nM; rat striatal tissue homogenate; 37°C for 15 minutes
T2 construct: Striatal tissue was excised, pooled, and homogenized; from tissue; host or cells: rat striatum (Sprague-Dawley), washed membrane pellet
T2 sequence (P61169 whole entry): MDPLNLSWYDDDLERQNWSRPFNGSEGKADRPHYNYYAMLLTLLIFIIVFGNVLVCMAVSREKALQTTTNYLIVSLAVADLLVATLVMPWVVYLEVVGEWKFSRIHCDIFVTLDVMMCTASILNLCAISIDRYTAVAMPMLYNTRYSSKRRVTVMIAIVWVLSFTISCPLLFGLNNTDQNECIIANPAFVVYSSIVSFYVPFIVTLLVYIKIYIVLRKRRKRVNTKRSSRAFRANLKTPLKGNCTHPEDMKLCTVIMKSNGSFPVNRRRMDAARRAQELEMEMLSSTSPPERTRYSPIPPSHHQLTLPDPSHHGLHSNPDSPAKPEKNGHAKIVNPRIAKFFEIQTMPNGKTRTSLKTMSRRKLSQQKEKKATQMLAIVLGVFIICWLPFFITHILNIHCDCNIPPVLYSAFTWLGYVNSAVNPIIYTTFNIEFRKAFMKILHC
Description: as §1, §2

T1 sequence (P18901 whole entry): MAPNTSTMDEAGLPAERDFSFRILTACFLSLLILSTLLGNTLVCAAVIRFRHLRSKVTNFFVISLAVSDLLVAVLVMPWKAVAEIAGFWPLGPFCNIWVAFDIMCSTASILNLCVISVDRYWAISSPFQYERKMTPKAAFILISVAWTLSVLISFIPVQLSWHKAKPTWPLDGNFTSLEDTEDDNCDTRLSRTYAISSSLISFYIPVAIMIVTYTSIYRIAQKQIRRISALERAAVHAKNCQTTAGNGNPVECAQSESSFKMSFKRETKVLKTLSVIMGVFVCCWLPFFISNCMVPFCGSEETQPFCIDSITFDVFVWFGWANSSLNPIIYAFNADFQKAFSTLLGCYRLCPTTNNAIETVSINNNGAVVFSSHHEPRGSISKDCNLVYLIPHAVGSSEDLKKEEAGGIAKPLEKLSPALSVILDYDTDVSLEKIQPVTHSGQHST

Oc1cc2c(cc1Cl)CCN[C@H]1Cc3ccccc3[C@H]21 (racemic)
Ki (dopamine D-1 receptor): 7 nM
Ki (D-2 receptor): 1.58 µM

CN1CCc2cc(Cl)c(O)cc2[C@H]2c3ccccc3C[C@@H]21 (racemic) [Trans-6-methyl-5,6,7,7a,8,12b-hexahydro-2-hydroxy-3-chloro-benz[d]indeno-[2,1-b]azepine]
Ki (dopamine D-1 receptor): 7 nM
Ki (D-2 receptor): 12 µM
